Experimental data published in PubChem BioAssay (NCI).
Values joined by “and” are separate entries in the source; they are usually repeats but may differ in a detail not shown here. Identical values can stand only once.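 1) Cells in 96-well plates. 2) Compound, 48 h, 5 concentrations. 3) Linear interpolation between surrounding doses. 4) Unreached endpoint = highest concentration. GI50: concentration for 50% inhibition of growth. Definition used: TGI = concentration required for complete inhibition of growth.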

Assays:
Assay in all cases: NCI tumour cell line growth inhibition, 48 h
[1] = test system: MDA-MB-468 breast
[2] = test system: T-47D breast
[3] = test system: HCT-15 colon
[4] = test system: SN12C renal
[5] = test system: ACHN renal
[6] = test system: LOX IMVI melanoma
[7] = test system: HOP-62 NSCLC
[8] = test system: U251 CNS
[9] = test system: HL-60(TB) leukemia
[10] = test system: CAKI-1 renal
[11] = test system: SK-MEL-5 melanoma
[12] = test system: SW-620 colon
[13] = test system: SNB-75 CNS
[14] = test system: RPMI-8226 leukemia
[15] = test system: SK-MEL-28 melanoma
[16] = test system: NCI-H226 lung
[17] = test system: MDA-MB-231 breast
[18] = test system: K-562 leukemia
[19] = test system: DU-145 prostate
[20] = test system: M14 melanoma
[21] = test system: SF-539 CNS
[22] = test system: HS 578T breast
[23] = test system: MALME-3M melanoma
[24] = test system: UO-31 renal
[25] = test system: SR leukemia
[26] = test system: 786-0 renal
[27] = test system: KM12 colon
[28] = test system: BT-549 breast
[29] = test system: A498 renal
[30] = test system: HCC-2998 colon
[31] = test system: SK-MEL-2 melanoma
[32] = test system: MOLT-4 leukemia
[33] = test system: IGROV1 ovarian
[34] = test system: NCI-H460 lung
[35] = test system: OVCAR-3 ovarian
[36] = test system: SK-OV-3 ovarian
[37] = test system: NCI-H522 lung
[38] = test system: HOP-92 NSCLC
[39] = test system: CCRF-CEM leukemia
[40] = test system: EKVX NSCLC
[41] = test system: UACC-62 melanoma
[42] = test system: OVCAR-5 ovarian
[43] = test system: NCI-H23 lung
[44] = test system: HCT-116 colon
[45] = test system: UACC-257 melanoma
[46] = test system: HT29 colon
[47] = test system: SF-295 CNS

## O=C1[C@H]2Cc3c([nH]c4ccccc34)[C@@H](c3ccc(Br)cc3)N2C(=O)CN1C1CCN(Cc2ccccc2)CC1
[1]
  GI50: 1140 nM
  TGI: 4850 nM

## Cc1ccc(S(=O)(=O)NC(CCC(=O)Nc2ccc(Cl)cc2)C(=O)Nc2ccc(Cl)cc2)cc1 (stereo not drawn)
[1]
  GI50: 1290 nM
  TGI: 6530 nM

## COc1cccc(NC(=O)c2sc3nc4c(cc3c2N)CCCC4)c1
[1]
  GI50: 239 nM
  TGI: 874 nM

## C1CCC([PH+](C2CCCCC2)C2CCCCC2[PH+](C2CCCCC2)C2CCCCC2)CC1.[Au].[CH-]1CCCCC1C1CCCC[N-]1 (stereo not drawn)
[1]
  GI50: 154 nM
  TGI: 641 nM

## O=C(Nc1ccncc1)C(=O)c1cn(S(=O)(=O)c2ccc(Br)cc2)c2ccccc12
[1]
  GI50: 608 nM
  TGI: 7840 nM

## Cn1cc(-c2ccc(=O)n(Cc3cccc(-c4ncc(OCCN5CCOCC5)cn4)c3)n2)cn1
[1]
  GI50: 14400 nM
  TGI: 86800 nM

## COc1cc(-c2cc(C(=O)N3CCN(C(=O)c4ccccc4NCc4ccco4)CC3)nc3cc(-c4ccccc4)nn23)cc(OC)c1OC
[1]
  GI50: 2320 nM
  TGI: 7200 nM

## N#C/C(=C\c1c(-c2ccccc2)[nH]c2ccccc12)C(=O)c1ccc(Cl)cc1
[1]
  GI50: 527 nM
  TGI: 6290 nM

## COc1cc(CCc2cc(NC(=O)c3ccc(N4C[C@@H](C)N[C@@H](C)C4)cc3)n[nH]2)cc(OC)c1
[1]
  GI50: > 10000 nM and 8100 nM
  TGI: > 10000 nM and 20800 nM

## Cc1cc(NC(=O)C2c3ccccc3C(=O)N(CC(C)C)C2c2cccs2)no1 (stereo not drawn)
[1]
  GI50: 43800 nM
  TGI: > 100000 nM

## CCCCCCCCCCCCCCCCCCNC(=O)[C@H]1CSC(c2ccc(OC)c(F)c2)N1 (stereo partly drawn)
[1]
  GI50: 18600 nM
  TGI: > 50900 nM

## COc1cc2cc(Oc3ccc(NC(=O)Nc4ccc(F)c(C(F)(F)F)c4)cc3)c(C)nc2cc1OCCN1CCCCC1
[1]
  GI50: 1470 nM
  TGI: 2920 nM

## COc1ccc(N(C)c2nc(C)nc3ccccc23)cc1
[1]
  GI50: < 10 nM
  TGI: < 10 nM

## COc1ccc([C@H]2C(=O)N(c3cc(OC)c(OC)c(OC)c3)[C@@H]2c2ccc(OC)c(O)c2)cc1
[1]
  GI50: 23 nM
  TGI: 62.8 nM

## C[C@H]1[C@H](OC(=O)CCC(=O)O)O[C@@H]2O[C@]3(C)CC[C@H]4[C@H](C)CC[C@@H]1[C@@]24OO3
[1]
  GI50: 2860 nM
  TGI: 24700 nM

## COc1ccccc1C(=O)/C=C/c1cc2cccc(OC)c2[nH]c1=O
[1]
  GI50: 104 nM
  TGI: 2010 nM

## CCC1(OC(=O)CN2CCN(CCO)CC2)C(=O)OCc2c1cc1n(c2=O)Cc2cc3ccccc3nc2-1 (stereo not drawn)
[1]
  GI50: 149 nM
  TGI: 449 nM

## O=C1C=C[C@]2(C[C@@H](c3cccc(C(F)(F)F)c3)O[C@@H](c3cccc(C(F)(F)F)c3)O2)O1
[1]
  GI50: 1670 nM
  TGI: 3590 nM

## CCCCCCCCCCCCc1ccc(C(=O)/C=C/C(=O)O)cc1
[1]
  GI50: 1660 nM
  TGI: 3350 nM

## Nc1cccc2c1C(=O)N(C1CCC(=O)NC1=O)C2=O (stereo not drawn)
[1]
  GI50: > 100000 nM
  TGI: > 100000 nM

## O=C1/C(=C\c2ccc(Cl)cc2)CN(C(=S)Nc2ccccc2)C/C1=C\c1ccc(Cl)cc1
[1]
  GI50: 457 nM
  TGI: 1660 nM

## O=[N+]([O-])c1ccc(N/N=C\c2cc(Cl)ccc2O)nc1
[1]
  GI50: 2510 nM
  TGI: 7250 nM

## O/N=C1\CCc2cc(-c3nc(C4CCNCC4)[nH]c3-c3ccncc3)ccc21
[1]
  GI50: > 25000 nM
  TGI: > 25000 nM

## CS(=O)(=O)c1nccc(-c2c(-c3ccc(F)c(OCCc4ccc(F)cc4)c3)nc3sccn23)n1
[1]
  GI50: 1810 nM
  TGI: 3530 nM

## O=C(Nc1n[nH]c2nc(-c3ccco3)c(Br)cc12)C1CC1
[1]
  TGI: > 25000 nM

## COC(=O)[C@]12CC[C@@H](C)[C@H](C)[C@@H]1C1=CC[C@@H]3[C@@]4(C)CC(=O)[C@H](O)[C@@]5(C)COC(=C45)C[C@@]3(C)[C@]1(C)CC2
[1]
  GI50: 14900 nM
  TGI: 30500 nM

## O=C1c2cc3c(cc2-c2c1c1cc(Cl)c(Cl)cc1c(=O)n2CCCn1ccnc1)OCO3
[1]
  GI50: < 10 nM
  TGI: 45.8 nM

## COc1cc[nH]c1/C=C1\C(=O)Nc2ccc(F)c(C#C[C@@H](O)[C@@H](N)[C@@H](C)O)c21
[1]
  GI50: 476 nM
  TGI: 1180 nM

## COc1cc2cc(Oc3ccc(NC(=O)Nc4cccc(C(F)(F)F)c4)cc3)c(C)nc2cc1OCCN1CCCCC1
[1]
  GI50: 1590 nM
  TGI: 3210 nM

## CC1(C)N=C(N)N=C(N)N1c1cccc(/C=C/C=C/c2cccc([N+](=O)[O-])c2)c1
[1]
  GI50: 346 nM
  TGI: 12000 nM

## COc1ccc(/C=C2\CN(C(=O)CCN3CCC(=NO)CC3)C/C(=C\c3ccc(OC)cc3)C2=O)cc1
[1]
  GI50: 2010 nM
  TGI: 4580 nM

## C[C@@H](c1ccc2nccn2c1)n1nnc2ncc(-c3cnn(C)c3)nc21
[1]
  GI50: 38600 nM
  TGI: > 100000 nM

## COc1cc2c(cc1OC)C(=O)C(Br)CC2 (stereo not drawn)
[1]
  GI50: 1280 nM
  TGI: 3570 nM

## C=Cn1cc(C(=O)O)c(=O)c2cc(F)c(N3CCN(c4nccc(-c5nccs5)n4)CC3)cc21
[2]
  GI50: 118 nM
  TGI: > 100000 nM
[3]
  GI50: 40.5 nM
  TGI: 1600 nM
[4]
  GI50: 119 nM
  TGI: 2530 nM
[5]
  GI50: 16.6 nM
  TGI: 1170 nM
[6]
  GI50: 35 nM
  TGI: 195 nM
[7]
  GI50: 139 nM
  TGI: 3690 nM
[8]
  GI50: 85.8 nM
  TGI: > 100000 nM
[9]
  GI50: 209 nM
  TGI: 2950 nM
[10]
  GI50: 23.7 nM
  TGI: 839 nM
[11]
  GI50: 36.4 nM
  TGI: 576 nM
[12]
  GI50: 23.4 nM
  TGI: 2690 nM
[13]
  GI50: 115 nM
  TGI: 1630 nM
[14]
  GI50: 62 nM
  TGI: 1450 nM
[15]
  GI50: 96.4 nM
  TGI: 1260 nM
[16]
  GI50: 60.7 nM
  TGI: 517 nM
[17]
  GI50: 345 nM
  TGI: 3440 nM
[18]
  GI50: 61.4 nM
  TGI: > 100000 nM
[19]
  GI50: 145 nM
  TGI: 4080 nM
[20]
  GI50: 238 nM
  TGI: 3380 nM
[21]
  GI50: 72.8 nM
  TGI: 2310 nM
[22]
  GI50: 86.5 nM
  TGI: 1490 nM
[23]
  GI50: 50.6 nM
  TGI: 1330 nM
[24]
  GI50: 25.9 nM
  TGI: 782 nM
[25]
  TGI: 1530 nM
[26]
  GI50: 225 nM
  TGI: 2920 nM
[27]
  GI50: 78.5 nM
  TGI: 2670 nM
[28]
  GI50: 194 nM
  TGI: 1560 nM
[29]
  GI50: 55.4 nM
  TGI: 2780 nM
[30]
  GI50: 80.4 nM
  TGI: 2030 nM
[31]
  GI50: 77.1 nM
  TGI: 1260 nM
[32]
  GI50: 40.4 nM
  TGI: 2520 nM
[33]
  GI50: 41.8 nM
  TGI: 1510 nM
[34]
  GI50: 21.5 nM
  TGI: 1390 nM
[1]
  GI50: 109 nM
  TGI: 1230 nM
[35]
  GI50: 88.6 nM
  TGI: 2770 nM
[36]
  GI50: 208 nM
  TGI: 3790 nM
[37]
  GI50: 66.7 nM
  TGI: 1280 nM
[38]
  GI50: 210 nM
  TGI: 1660 nM
[39]
  GI50: 61.6 nM
  TGI: > 100000 nM
[40]
  GI50: 283 nM
  TGI: 4300 nM
[41]
  GI50: 24.6 nM
  TGI: 175 nM
[42]
  GI50: 234 nM
  TGI: 3370 nM
[43]
  GI50: 55.8 nM
  TGI: 1270 nM
[44]
  GI50: 30.4 nM
  TGI: 1420 nM
[45]
  GI50: 172 nM
  TGI: 2900 nM
[46]
  GI50: 46.4 nM
  TGI: 2490 nM
[47]
  GI50: 29.1 nM
  TGI: 1550 nM

## Cc1cc2c(C)c3cc(C)c(N)cc3nc2cc1N
[1]
  GI50: 399 nM
  TGI: 2370 nM

## CCOC(=O)c1cnc(SCc2ccc(Cl)c(Cl)c2)nc1N1CC1
[1]
  GI50: 2400 nM
  TGI: 6140 nM

## COc1ccc(-c2cc(-c3ccc(Nc4nc(Nc5ccc(Cl)cc5)nc(Nc5ccc(Cl)cc5)n4)cc3)nc(N)c2C#N)cc1
[1]
  GI50: 369 nM
  TGI: 1960 nM

## COc1ccc(/C(=C/c2cc(OC)c(OC)c(OC)c2)[N+](=O)[O-])cc1
[1]
  GI50: 2010 nM
  TGI: 4780 nM

## OB([O][Hg][c]1ccccc1)[O][Hg][c]1ccccc1
[1]
  GI50: 88.5 nM
  TGI: 303 nM
